Results published in patent publication US10787446B2 (GENENTECH, INC., priority 2015, dated 2020).

What follows are compounds tested against T1, hNav1.7 and the β1 subunit (Homo sapiens, UniProt Q15858) (assay: Tritiated compound competitive binding to membranes from cells heterologously expressing hNav1.7 and the β1 subunit (LBA)). Settings: competition with 100 pM [3H]compound, 18 h, room temperature; IC50 by 4 parameter logistic model.
T1 construct: expressed in transfected cells
T1 sequence (Q15858 whole entry): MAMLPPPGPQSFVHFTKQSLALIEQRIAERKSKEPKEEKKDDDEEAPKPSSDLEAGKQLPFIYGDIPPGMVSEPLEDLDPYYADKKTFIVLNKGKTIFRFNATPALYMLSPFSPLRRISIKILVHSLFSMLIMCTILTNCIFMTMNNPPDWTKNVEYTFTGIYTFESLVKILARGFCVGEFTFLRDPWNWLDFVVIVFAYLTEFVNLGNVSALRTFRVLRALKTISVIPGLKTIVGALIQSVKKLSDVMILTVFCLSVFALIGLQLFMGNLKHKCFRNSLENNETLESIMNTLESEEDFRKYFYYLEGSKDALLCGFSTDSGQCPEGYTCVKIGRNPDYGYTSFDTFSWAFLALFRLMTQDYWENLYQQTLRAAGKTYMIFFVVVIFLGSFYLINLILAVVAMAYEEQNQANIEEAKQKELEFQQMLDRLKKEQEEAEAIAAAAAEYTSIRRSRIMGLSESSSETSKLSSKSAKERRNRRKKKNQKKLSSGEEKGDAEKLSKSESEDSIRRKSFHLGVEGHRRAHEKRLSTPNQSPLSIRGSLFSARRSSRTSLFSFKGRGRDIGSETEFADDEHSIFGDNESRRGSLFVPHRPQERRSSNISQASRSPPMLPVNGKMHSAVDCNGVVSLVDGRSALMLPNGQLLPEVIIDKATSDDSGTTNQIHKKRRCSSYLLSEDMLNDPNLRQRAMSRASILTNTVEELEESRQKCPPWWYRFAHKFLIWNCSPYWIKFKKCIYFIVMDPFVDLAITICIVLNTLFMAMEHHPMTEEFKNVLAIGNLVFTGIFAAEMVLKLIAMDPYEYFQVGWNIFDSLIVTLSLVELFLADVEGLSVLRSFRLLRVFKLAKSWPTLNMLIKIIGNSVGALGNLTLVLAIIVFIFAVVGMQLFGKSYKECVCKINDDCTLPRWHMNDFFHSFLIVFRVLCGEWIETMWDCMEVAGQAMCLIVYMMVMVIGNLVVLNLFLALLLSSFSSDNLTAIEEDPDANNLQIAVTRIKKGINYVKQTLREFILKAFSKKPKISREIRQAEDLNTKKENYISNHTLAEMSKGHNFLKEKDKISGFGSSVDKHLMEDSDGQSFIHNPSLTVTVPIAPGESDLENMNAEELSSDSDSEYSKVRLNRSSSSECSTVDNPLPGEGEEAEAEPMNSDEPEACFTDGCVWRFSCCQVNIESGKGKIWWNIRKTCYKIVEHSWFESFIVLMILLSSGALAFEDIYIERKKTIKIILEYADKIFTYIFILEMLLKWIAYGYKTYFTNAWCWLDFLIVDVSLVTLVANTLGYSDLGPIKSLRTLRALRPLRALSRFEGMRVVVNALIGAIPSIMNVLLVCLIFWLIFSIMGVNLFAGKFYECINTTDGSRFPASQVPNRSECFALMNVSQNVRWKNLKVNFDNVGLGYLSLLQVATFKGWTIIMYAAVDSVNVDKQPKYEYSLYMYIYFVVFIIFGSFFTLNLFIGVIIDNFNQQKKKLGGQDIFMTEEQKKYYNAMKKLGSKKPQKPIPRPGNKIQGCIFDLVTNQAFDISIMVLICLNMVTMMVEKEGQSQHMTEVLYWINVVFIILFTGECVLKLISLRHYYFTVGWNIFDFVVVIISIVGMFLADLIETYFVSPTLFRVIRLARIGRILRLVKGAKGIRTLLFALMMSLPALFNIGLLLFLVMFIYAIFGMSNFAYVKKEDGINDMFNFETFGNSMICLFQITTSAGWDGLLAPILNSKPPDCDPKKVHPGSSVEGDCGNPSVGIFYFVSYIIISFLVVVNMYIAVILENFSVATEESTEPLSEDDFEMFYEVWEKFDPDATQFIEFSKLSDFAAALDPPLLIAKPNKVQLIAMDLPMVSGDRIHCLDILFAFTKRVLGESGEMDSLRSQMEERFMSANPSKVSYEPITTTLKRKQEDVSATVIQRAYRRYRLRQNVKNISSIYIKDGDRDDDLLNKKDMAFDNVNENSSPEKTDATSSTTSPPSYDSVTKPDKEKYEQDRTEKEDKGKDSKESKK
T1 sequence (Q07699 19-218 partner): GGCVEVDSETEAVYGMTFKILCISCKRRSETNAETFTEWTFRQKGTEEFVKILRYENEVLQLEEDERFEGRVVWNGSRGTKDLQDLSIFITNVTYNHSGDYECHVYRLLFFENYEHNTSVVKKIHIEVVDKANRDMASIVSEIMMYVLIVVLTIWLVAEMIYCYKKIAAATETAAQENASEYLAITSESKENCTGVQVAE
Protocol: Example 235 Tritiated Compound Binding to Membranes Isolated from Cells that Heterologously Express hNav1.7 and the β1 Subunit
Preparation of membranes containing recombinantly expressed sodium channels: Frozen recombinant cell pellets were thawed on ice and diluted to 4 times the cell pellet weight with ice cold 50 mM Tris HCl, pH 7.4 buffer. The cell suspensions were homogenized on ice using a motorized glass dounce homogeniser. Homogenates were further diluted 8.4 times with ice cold 50 mM Tris HCl, pH 7.4 buffer and then centrifuged at 200×g at 4° C. for 15 min. The supernatants were collected and centrifuged at 10000×g at 4° C. for 50 min. The pellets were then re-suspended in 100 mM NaCl, 20 mM Tris HCl, pH 7.4 buffer containing 1% v/v protease inhibitors (Calbiochem) and re-homogenized on ice. The homogenized membranes were then processed through a syringe equipped with a 26 gauge needle. Protein concentrations were determined by Bradford Assay and the membranes were stored at −80° C.
Radioligand Binding Studies:
Saturation experiments. A competitive NaV1.7 inhibitor having a methyl group was tritiated. Three tritiums were incorporated in place of methyl hydrogens to generate [^3H]compound. Binding of this radioligand was performed in 5 mL borosilicate glass test tubes at room temperature. Binding was initiated by adding membranes to increasing concentrations of [^3H]compound in 100 mM NaCl, 20 mM Tris HCl, pH 7.4 buffer containing 0.01% w/v bovine serum albumin (BSA) for 18 h. […] After 18 h, the reactants were filtered through GF/C glass fiber filters presoaked in 0.5% w/v polyethylene imine. […] [^3H]compound bound to filters was quantified by liquid scintillation counting.
Competitive Binding Experiments:
Binding reactions were performed in 96-well polypropylene plates at room temperature for 18 h. In 360 μL, membranes were incubated with 100 pM [^3H]compound and increasing concentrations of Test Compound. […] Reactions were transferred and filtered through 96-well glass fiber/C filter plates presoaked with 0.5% polyethylene imine. The filtered reactions were washed 5 times with 200 μL ice cold buffer containing 0.25% BSA. Bound radioactivity was determined by liquid scintillation counting.
Data Analysis: For saturation experiments, non-specific binding was subtracted from total binding to provide specific binding and these values were recalculated in terms of pmol ligand bound per mg protein. Saturation curves were constructed and dissociation constants were calculated using the single site ligand binding model: Beq=(Bmax*X)/(X+Kd), where Beq is the amount of ligand bound at equilibrium, Bmax is the maximum receptor density, Kd is the dissociation constant for the ligand, and X is the free ligand concentration. For competition studies percent inhibition was determined and IC50 values were calculated using a 4 parameter logistic model (% inhibition=(A+((B−A)/(1+((x/C)^D)))) using XLfit, where A and B are the maximal and minimum inhibition respectively, C is the IC50 concentration and D is the (Hill) slope.
In the case of O=S(=O)(Nc1ncccn1)c1cc2c(cc1F)[C@@H](N1CC[C@@H](C(F)(F)F)C[C@H]1c1ccc(F)cc1)CCO2 (single isomer, unassigned) [Example 97], the “Nav1.7 (LBA)” value is reported as 0.0217 µM. O=S(=O)(Nc1cscn1)c1cc2c(cc1F)[C@H](N1CCCC[C@H]1c1ccccc1)CCO2 (single isomer, unassigned) [Example 98] was tested, and the “Nav1.7 (LBA)” value was 1.79 µM. With O=S(=O)(Nc1cscn1)c1cc2c(cc1F)[C@@H](N1CCCC[C@H]1c1ccccc1)CCO2 (single isomer, unassigned) [Example 99] the “Nav1.7 (LBA)” value was 0.091 µM. O=S(=O)(Nc1nccs1)c1ccc2c(c1)OCC[C@@H]2N1CCCC[C@@H]1c1ccc(F)cc1 (single isomer, unassigned) [Example 100] was tested, and the “Nav1.7 (LBA)” value was 0.0221 µM. With O=S(=O)(Nc1nccs1)c1ccc2c(c1)OCC[C@@H]2N1CCCC[C@H]1c1ccc(F)cc1 (single isomer, unassigned) [Example 101] the “Nav1.7 (LBA)” value was 0.022 µM. In the case of O=S(=O)(Nc1nccs1)c1ccc2c(c1)OCC[C@@H]2N1CCCC[C@H]1c1ccccc1 (single isomer, unassigned) [Example 102], the “Nav1.7 (LBA)” value is reported as 0.072 µM. In the case of O=S(=O)(Nc1nccs1)c1ccc2c(c1)OCC[C@H]2N1CCCC[C@H]1c1ccccc1 (single isomer, unassigned) [Example 103], the “Nav1.7 (LBA)” value is reported as 0.90 µM. In the case of O=S(=O)(Nc1ncns1)c1cc(F)c(CN2CCC3(CC3)C[C@@H]2c2ccccc2)cc1F (single isomer, unassigned) [Example 109], the “Nav1.7 (LBA)” value is reported as 1.57 µM. With O=S(=O)(Nc1ncns1)c1cc(F)c(CN2CC[C@@H](OC(F)(F)F)C[C@H]2c2ccccc2)cc1F (single isomer, unassigned) [Example 111] the “Nav1.7 (LBA)” value was 0.0923 µM. In the case of O=S(=O)(Nc1ncns1)c1cc(F)c(CN2CC[C@H](O)C[C@@H]2c2ccccc2)cc1F (single isomer, unassigned) [Example 113], the “Nav1.7 (LBA)” value is reported as 8.59 µM. In the case of O=S(=O)(Nc1ncns1)c1ccc2c(c1)OCC[C@@H]2N1CCCC[C@H]1c1cccnc1 (single isomer, unassigned) [Example 121], the “Nav1.7 (LBA)” value is reported as 0.0237 µM. In the case of O=S(=O)(Nc1ncns1)c1ccc2c(c1)OCC[C@H]2N1CCCC[C@H]1c1cccnc1 (single isomer, unassigned) [Example 122], the “Nav1.7 (LBA)” value is reported as 0.0125 µM. For Cn1nccc1[C@@H]1C[C@H](C(F)(F)F)CCN1[C@H]1CCOc2cc(S(=O)(=O)Nc3ncns3)ccc21 (single isomer, unassigned) [Example 123], the “Nav1.7 (LBA)” value was 0.000616 µM. In the case of Cn1nccc1[C@@H]1C[C@H](C(F)(F)F)CCN1[C@@H]1CCOc2cc(S(=O)(=O)Nc3ncns3)ccc21 (single isomer, unassigned) [Example 124], the “Nav1.7 (LBA)” value is reported as 0.601 µM. In the case of Cn1nccc1[C@H]1C[C@@H](C(F)(F)F)CCN1[C@H]1CCOc2cc(S(=O)(=O)Nc3ncns3)ccc21 (single isomer, unassigned) [Example 125], the “Nav1.7 (LBA)” value is reported as 0.00448 µM. For Cn1nccc1[C@H]1C[C@@H](C(F)(F)F)CCN1[C@@H]1CCOc2cc(S(=O)(=O)Nc3ncns3)ccc21 (single isomer, unassigned) [Example 126], the “Nav1.7 (LBA)” value was 0.313 µM. With CC(C)[C@@H]1CCN([C@H]2CCOc3cc(S(=O)(=O)Nc4ncns4)ccc32)[C@H](c2ccccc2)C1 (single isomer, unassigned) [Example 127] the “Nav1.7 (LBA)” value was 0.00883 µM. With CC(C)[C@@H]1CCN([C@@H]2CCOc3cc(S(=O)(=O)Nc4ncns4)ccc32)[C@H](c2ccccc2)C1 (single isomer, unassigned) [Example 128] the “Nav1.7 (LBA)” value was 0.469 µM. With CC(C)[C@H]1CCN([C@H]2CCOc3cc(S(=O)(=O)Nc4ncns4)ccc32)[C@@H](c2ccccc2)C1 (single isomer, unassigned) [Example 129] the “Nav1.7 (LBA)” value was 0.0168 µM. For CC(C)[C@H]1CCN([C@@H]2CCOc3cc(S(=O)(=O)Nc4ncns4)ccc32)[C@@H](c2ccccc2)C1 (single isomer, unassigned) [Example 130], the “Nav1.7 (LBA)” value was 0.109 µM. In the case of O=S(=O)(Nc1ncns1)c1ccc2c(c1)OCC[C@@H]2N1CCC(F)(F)C[C@@H]1c1ccc(F)cc1 (single isomer, unassigned) [Example 131], the “Nav1.7 (LBA)” value is reported as 0.00851 µM. O=S(=O)(Nc1ncns1)c1ccc2c(c1)OCC[C@H]2N1CCC(F)(F)C[C@@H]1c1ccc(F)cc1 (single isomer, unassigned) [Example 132] was tested, and the “Nav1.7 (LBA)” value was 0.0757 µM. O=S(=O)(Nc1ncns1)c1ccc2c(c1)OCC[C@H]2N1CCC(F)(F)C[C@H]1c1ccc(F)cc1 (single isomer, unassigned) [Example 133] was tested, and the “Nav1.7 (LBA)” value was 0.0467 µM. In the case of O=S(=O)(Nc1ncns1)c1ccc2c(c1)OCC[C@@H]2N1CCC(F)(F)C[C@H]1c1ccc(F)cc1 (single isomer, unassigned) [Example 134], the “Nav1.7 (LBA)” value is reported as 0.00295 µM. For CC(C)(O)[C@H]1CCN([C@@H]2CCOc3cc(S(=O)(=O)Nc4ncns4)ccc32)[C@@H](c2ccc(F)cc2)C1 (single isomer, unassigned) [Example 135], the “Nav1.7 (LBA)” value was 0.0271 µM. In the case of CC(C)(O)[C@H]1CCN([C@H]2CCOc3cc(S(=O)(=O)Nc4ncns4)ccc32)[C@@H](c2ccc(F)cc2)C1 (single isomer, unassigned) [Example 136], the “Nav1.7 (LBA)” value is reported as 0.0194 µM. In the case of CC(C)(O)[C@@H]1CCN([C@@H]2CCOc3cc(S(=O)(=O)Nc4ncns4)ccc32)[C@H](c2ccc(F)cc2)C1 (single isomer, unassigned) [Example 137], the “Nav1.7 (LBA)” value is reported as 0.736 µM. For CC(C)(O)[C@@H]1CCN([C@H]2CCOc3cc(S(=O)(=O)Nc4ncns4)ccc32)[C@H](c2ccc(F)cc2)C1 (single isomer, unassigned) [Example 138], the “Nav1.7 (LBA)” value was 0.0035 µM. O=S(=O)(Nc1ncns1)c1ccc2c(c1)OCC[C@H]2N1CCC(F)(F)C[C@H]1c1ccccc1 (single isomer, unassigned) [Example 139] was tested, and the “Nav1.7 (LBA)” value was 2.29 µM. In the case of O=S(=O)(Nc1ncns1)c1ccc2c(c1)OCC[C@@H]2N1CCC(F)(F)C[C@H]1c1ccccc1 (single isomer, unassigned) [Example 140], the “Nav1.7 (LBA)” value is reported as 0.0144 µM. For O=S(=O)(Nc1ncns1)c1ccc2c(c1)OCC[C@H]2N1CCC(F)(F)C[C@@H]1c1ccccc1 (single isomer, unassigned) [Example 141], the “Nav1.7 (LBA)” value was 0.486 µM. O=S(=O)(Nc1ncns1)c1ccc2c(c1)OCC[C@@H]2N1CCC(F)(F)C[C@@H]1c1ccccc1 (single isomer, unassigned) [Example 142] was tested, and the “Nav1.7 (LBA)” value was 0.0173 µM. With O=S(=O)(Nc1ncns1)c1ccc2c(c1)OCC[C@@H]2N1CC[C@@H](C(F)(F)F)C[C@H]1c1ccn[nH]1 (single isomer, unassigned) [Example 143] the “Nav1.7 (LBA)” value was 8.9 µM. In the case of O=S(=O)(Nc1ncns1)c1ccc2c(c1)OCC[C@H]2N1CC[C@@H](C(F)(F)F)C[C@H]1c1ccn[nH]1 (single isomer, unassigned) [Example 144], the “Nav1.7 (LBA)” value is reported as 0.282 µM. O=S(=O)(Nc1ncns1)c1ccc2c(c1)OCC[C@@H]2N1CC[C@H](C(F)(F)F)C[C@@H]1c1ccn[nH]1 (single isomer, unassigned) [Example 145] was tested, and the “Nav1.7 (LBA)” value was 0.0117 µM. With O=S(=O)(Nc1ncns1)c1ccc2c(c1)OCC[C@H]2N1CC[C@H](C(F)(F)F)C[C@@H]1c1ccn[nH]1 (single isomer, unassigned) [Example 146] the “Nav1.7 (LBA)” value was 0.308 µM. With O=S(=O)(Nc1ncns1)c1ccc2c(c1)OCC[C@@H]2N1CCCC[C@H]1CCO (single isomer, unassigned) [Example 151] the “Nav1.7 (LBA)” value was 3.51 µM.
